Source: ChEMBL document CHEMBL3044617, “N-[2(3-Carboxyl-9-benzyl-carboline-1-yl)ethyl-1-yl]-amino acids: correlation of spectral property with in vivo anti-tumor activity” (2012)
Active and inactive are the calls of the source. The calls are words filed in the database; no cut-off is given here.

What was measured:
DNA [1] = test: Binding affinity to Bos taurus (calf) thymus DNA assessed as negative band intensity at 100 uM after 24 hr by CD spectra analysis (reference value: -15209 +/- 245 deg cm2/dmol'-1); type: nucleic-acid assay
DNA [2] = test: Binding affinity to Bos taurus (calf) thymus DNA assessed as hypochromic effect at 20 uM by UV spectra analysis; type: nucleic-acid assay
CCRF S-180 = test: Antitumor activity against Mus musculus (mouse) S180 cells xenografted in ICR Mus musculus (mouse) assessed as tumor growth inhibition at 89 umol/kg, ip qd for 7 days measured after 24 hr of last dose relative to control; type: functional; settings: CCRF S-180, ip, read-out: TGI
DNA [3] = test: Binding affinity to Bos taurus (calf) thymus DNA assessed as change melting temperature at 20 uM; type: nucleic-acid assay
DNA [4] = test: Binding affinity to Bos taurus (calf) thymus DNA assessed as bathochromic shift at 0.5 uM by fluorescence quenching assay; type: nucleic-acid assay
DNA [5] = test: Binding affinity to Bos taurus (calf) thymus DNA assessed as decrease in fluorescence intensity at 0.5 uM by fluorescence quenching assay; type: nucleic-acid assay; parameters: scale not given: the % may be the effect or the level left
DNA [6] = test: Binding affinity to Bos taurus (calf) thymus DNA assessed as melting temperature at 20 uM (reference value: 60.3 degC); type: nucleic-acid assay
DNA [7] = test: Binding affinity to Bos taurus (calf) thymus DNA assessed as hypsochromic shift at 20 uM by UV spectra analysis; type: nucleic-acid assay
DNA [8] = test: Binding affinity to Bos taurus (calf) thymus DNA assessed as change in DNA viscosity; type: nucleic-acid assay
DNA [9] = test: Binding affinity to Bos taurus (calf) thymus DNA assessed as positive band intensity at 100 uM after 24 hr by CD spectra analysis (reference value: 21429 +/- 276 deg cm2/dmol'-1); type: nucleic-acid assay

SMILES	molecular ellipticity (DNA [1]) [deg.cm2/dmol]	Activity (DNA [2]) [%]	inhibition in vivo at 89 µmol/kg (CCRF S-180) [%]	ΔTm (DNA [3]) [°C]	Activity (DNA [4]) [nm]	Activity (DNA [5]) [%]	Tm (DNA [6]) [°C]	Activity (DNA [7]) [nm]	Activity (DNA [8])	molecular ellipticity (DNA [9]) [deg.cm2/dmol]
O=C(O)c1cc2c3ccccc3n(Cc3ccccc3)c2c(CCN[C@@H](CO)C(=O)O)n1	-23700	29.6	35.3	10.8	4.6	42.4	71.1	4.8	Active	10100
O=C(O)c1cc2c3ccccc3n(Cc3ccccc3)c2c(CCN[C@@H](Cc2ccc(O)cc2)C(=O)O)n1	-1080	30.5	48.6	11.9	4.4	58.7	72.2	4.8	Active	28900
C[C@@H](O)[C@H](NCCc1nc(C(=O)O)cc2c3ccccc3n(Cc3ccccc3)c12)C(=O)O	-5800	0	-29.1	4.9	2.2	32.6	65.4	0	Active	17400
O=C(O)C[C@H](NCCc1nc(C(=O)O)cc2c3ccccc3n(Cc3ccccc3)c12)C(=O)O	-36300	32	34.7	12.9	8.2	63.9	73.2	3.4	Active	2750
Nc1ccn([C@@H]2O[C@H](CO)[C@@H](O)[C@@H]2O)c(=O)n1 [CYTARABINE]	–	–	54.8	–	–	–	–	–	–	–
